Assays:
Type in all cases: in vivo
[1] = test system: Citrus unshiu; assay: Sugar content determination of Citrus unshiu fruit with refractometer (Example 9); conditions: leaf surface coated with 0.5 mM one week before harvest; vs no GSSG; ANOVA 5%
Procedure: In the present example, Citrus unshiu was cultivated. Specifically, one week before an expected date of harvesting Citrus unshiu fruit, a surface of a leaf on a branch having the fruit to be harvested was coated with 0.5 mM GSSG. The fruit was harvested on the expected date.
Next, the fruit harvested was subjected to a sensory test of sugar content. As a result, it was determined that the fruit applied with GSSG increased in sugar content and decreased in acidity. Further, it was determined that the fruit applied with GSSG increased in weight. Furthermore, the fruit obtained was subjected to sugar content determination using “Pocket” Refractometer APAL-1 (ATAGO CO., LTD.). For comparison, fruit applied with no GSSG was also subjected to the sugar content determination. […] In FIG. 6, the vertical scale indicates sugar content (Brix, unit: %).

[2] = test system: Lycopersicum esculentum; assay: Change of sugar content over time after one application of GSH or GSSG (Example 6); conditions: 50 mL of 0.5 mM once at root 90 days after sowing; fruit harvested day 0 to day 4
Procedure: In the present example, a sugar content of a plant was determined after a substance for regulating an oxidation-reduction state of a cell was applied to the plant. The substance for regulating an oxidation-reduction state of a cell was GSH or GSSG. As in the case of Example 1, Lycopersicum esculentum was used as the plant. Specifically, the following operations were carried out.
Ninety days after sowing of Lycopersicum esculentum seeds, Lycopersicum esculentum plants were subjected to a GSH or GSSG treatment. The Lycopersicum esculentum plants were cultivated by the same method as in Example 1 except for the GSH or GSSG treatment. The GSH or GSSG treatment was such that 50 mL of 0.5 mM GSSH or 0.5 mM GSH (adjusted with 0.1N NaOH to be at pH 7) was applied once at a root per plant. Then, fruit of the plants was harvested every day from the 0th day until the 4th day after application of GSH or GSSG, and subjected to sugar content determination. […] FIG. 3 is a graph showing a determination result of relation between sugar content and the number of days from an application day of GSH or GSSG. In FIG. 3, the vertical scale indicates sugar content (Brix, unit: %) and the horizontal scale indicates days from the application day. In FIG. 3, lines labeled with circles, triangles, and squares show results of the plants applied with GSH, GSSG, and no GSH and no GSSG, respectively. […]

[3] = test system: Vitis labrusca (Delaware); assay: Cultivation of Vitis labrusca with GSSG or GSH, sensory test (Example 5)
Procedure: In the present invention, Vitis labrusca was cultivated. Specifically, immediately after flowering of a Vitis labrusca (Delaware) plant, a mixed solution of 1 mM gibberellin (GA3) and 1 mM of an agent was applied to anthotaxy of the plant. The agent was GSSG or GSH. Then, the plant was coated with the agent and thereafter produced fruit was harvested. For comparison, a Vitis labrusca plant was cultivated in the same way, except that GA3, but not GSSG or GSH, was applied, and fruit thereof was harvested and subjected to a sensory test described below.
The fruit harvested was subjected to a sensory test of sugar content. As a result, it was determined that fruit of the plant applied with GA3 and GSSG or GSH increased in sugar content compared to that of the plant applied with only GA3. Further, it was determined that the plant applied with GSSG and GA3 increased in size of fruit.

[4] = test system: Fragaria ananassa; assay: Cultivation of Fragaria ananassa with GSSG or GSH, sensory tests of fruit (Example 10); conditions: 63 days
Procedure: In the present example, Fragaria ananassa was cultivated with use of GSSG or GSH. Details of cultivation are described below.
(§1) First, Fragaria ananassa seedlings were transplanted to a planter. In the planter, 6 L of vermiculite (ASAHI INDUSTRIES Co., LTD.), 3 L of KUREHA horticultural soil (KUREHA CORPORATION), and 3 L of vermiculite were layered as a lower, middle, and upper layers, respectively.
(§2) During cultivation of Fragaria ananassa plants, 50 mL of 0.2 mM or 0.5 mM GSSG or 50 mL of 0.4 mM or 0.5 mM GSH (adjusted with 0.1N NaOH to be at pH7) was applied once a week at a root per plant. The plants were grown for 63 days without being subjected to bud removal. For comparison, a Fragaria ananassa plant was grown under the same condition, except that GSSG and GSH were not applied. To the plants of any condition, 3 g of Kumiai phosphorate ammonium nitrate potassium S-604 (Chisso Asahi Fertilizer Co., Ltd.) was applied as an additional fertilizer once in 2 weeks.
Next, the fruit harvested was subjected to sensory tests of sugar content and the like. As a result, it was determined that fruit of the plant applied with GSSG increased in sugar content and decreased in acidity compared to that of the plant not applied with GSSG or GSH. Further, it was determined that the plant applied with GSSG increased in number of fruit. It was also determined that fruit of the plant applied with GSH increased in sugar content and acidity.

[5] = test system: Zea mays L. var. saccharata Sturt; assay: Cultivation of Zea mays L. var. saccharata Sturt with GSSG, sensory test (Example 3); conditions: 50 mL of 0.2 mM, 4 times at root and 4 times sprayed to leaves
Source text: In the present example, Zea mays L. var. saccharata Sturt was cultivated. First, a Zea mays L. var. saccharata Sturt seed (TAKII & CO. Ltd., product number: Canberra 90) was sown in vermiculite (ASAHI INDUSTRIES Co., LTD.). Two weeks after sowing, a Zea mays L. var. saccharata Sturt plant was transplanted to a hydroponic culture pot described in Example 1. To the plant, 3 g of Kumiai phosphorate ammonium nitrate potassium S-604 (Chisso Asahi Fertilizer Co., Ltd.) was applied as an additional fertilizer 4 weeks and 6 weeks after the sowing.
Within 2 weeks from the 5th week after the sowing, 50 mL of 0.2 mM GSSG was applied 4 times at a root of the plant. Within 2 weeks from the 7th week after the sowing, 50 mL of 0.2 mM GSSG was sprayed 4 times to leaves of the plant. For comparison, a Zea mays L. var. saccharata Sturt plant was cultivated by the same method as in the present example, except that GSSG was not applied, and fruit thereof was harvested.
Fruit was harvested 90 days after the sowing and subjected to a sensory test of sugar content. As a result, it was determined that fruit of the plant applied with GSSG increased in sugar content compared to that of the plant applied with no GSSG. Further, it was determined that the plant applied with GSSG increased in size and number of fruit.

[6] = test system: Fragaria ananassa; assay: Sugar content determination of Fragaria ananassa fruit with refractometer (Example 10); conditions: 50 mL of 0.2 or 0.5 mM GSSG, or 0.4 or 0.5 mM GSH, once a week at root; significance level 5%
Procedure: as §1, §2
Further, the fruit obtained was subjected to sugar content determination using “Pocket” Refractometer APAL-1 (ATAGO CO., LTD.). For comparison, fruit not applied with GSSG or GSH was also subjected to the sugar content determination. […] In FIG. 7, the vertical scale indicates sugar content (Brix, unit: %).

[7] = test system: Prunus avium (Napoleon); assay: Sugar content determination of Prunus avium fruit with refractometer (Example 8); conditions: leaf surface coated with 0.5 mM 4 and 3 weeks before harvest; vs no GSSG; ANOVA 5%
Procedure: In the present example, Prunus avium was cultivated. Specifically, 4 weeks and 3 weeks before an expected date of harvesting Prunus avium (Napoleon) fruit, a surface of a leaf on a branch having the fruit to be harvested was coated with 0.5 mM GSSG. The fruit was harvested on the expected date.
Next, the fruit harvested was subjected to a sensory test of sugar content. As a result, it was determined that the fruit applied with GSSG increased in sugar content and decreased in acidity. Further, it was determined that the fruit applied with GSSG increased in weight. Furthermore, the fruit obtained was subjected to sugar content determination using “Pocket” Refractometer APAL-1 (ATAGO CO., LTD.). For comparison, fruit applied with no GSSG was also subjected to the sugar content determination. […] In FIG. 5, the vertical scale indicates sugar content (Brix, unit: %).

In the case of oxidized glutathione [GSSG], the “sugar content of fruit (Brix)” value [1] is reported as “significantly improved”, the “sugar content of fruit (Brix) after application” value [2] is reported as “rapidly improve” and the size of fruit ([3]; 1 mM agent mixed with 1 mM GA3, applied to anthotaxy) is reported as “increased”. The “sugar content of fruit (sensory test)” value ([3]; 1 mM agent mixed with 1 mM gibberellin (GA3), applied to anthotaxy, compared to plant applied with only GA3) was “increased”, the sugar content ([3]; applied without GA3) was “increased” and the number of fruit ([4]; 50 mL of 0.2 or 0.5 mM GSSG once a week at root) was “increased”. The “acidity of fruit (sensory test)” value ([4]; 50 mL of 0.2 or 0.5 mM GSSG, or 0.4 or 0.5 mM GSH, once a week at root) was “decreased”, the “sugar content of fruit (sensory test)” value ([4]; 50 mL of 0.2 or 0.5 mM GSSG, or 0.4 or 0.5 mM GSH, once a week at root, vs plant not applied) was “increased” and the number of fruit [5] was “increased”. The size of fruit [5] was “increased”, the “sugar content of fruit (sensory test)” value ([5]; harvest 90 days after sowing, vs no GSSG) was “increased” and the “sugar content of fruit (Brix), ANOVA versus fruit not applied” value [6] was “significant difference”. The “sugar content of fruit (Brix)” value [7] was “significantly improved”.

Reference: patent publication US8524978B2, “Composition for production of plant body having improved sugar content, and use thereof” (Japan Science and Technology Agency, priority 2007, dated 2013)
